Laboratory results taken from patent US3954780A, “Propionic acid derivatives” (Innothera, priority 1970, dated 1976).
Values after ≈ are worked out from the molar mass of the structure shown. Values joined by “and” are separate entries in the source; they are usually repeats but may differ in a detail not shown here. Equal values may be shown once. Where a name gives a salt, the structure may show the parent alone. Read-outs that look alike come from different tables or passages of the source.

Assays:
[1] = test system: isolated rat duodenum; test: Spasmolytic activity of papaverinic type, barium chloride contracture; settings: Tyrode 38°; for EC50: read-out: Spasmolytic activity Papaverinic type DE 50 (converted)
Method: a. To show activity of the papaverinic type, the contracturant used is barium chloride acting on the isolated rat duodenum.
The average activity of the substances studied has been effected by determining graphically their DE 30 and DE 50 these being expressed in μg for 20 ml of bath.

[2] = test system: isolated ileum of the guinea-pig; test: Spasmolytic activity of atropinic type, acetylcholine chloride contracture; settings: Tyrode 33°; for EC50: Cavia porcellus, read-out: Spasmolytic activity Atropinic type DE 50 (converted)
Text: b. To show activity of atropinic type the contracturant used is acetylcholine chloride acting on the isolated ileum of the guinea-pig. […]

[3] = Acute toxicity in the mouse (DL50, method of Miller and Tainter); settings: in vivo, read-out: DL 50 (the source's name)
Text: The acute toxicity of the amine ester derivatives of β-[ benzo(b)thienyl-3]propionic acid have been studied in the mouse by intraperitoneal and oral routes, the products being administered in an isotonic solution of sodium chloride, 0.9%, or in suspension in a dilute aqueous solution of carboxymethyl cellulose.
The calculation of the DL50 has been effected according to the method of MILLER and TAINTER (MILLER. L.C., TAINTER M.L. - Proc. Soc. Exptl. Biol. Med. 1944-57-261,264).

[4] = test system: acute oedema provoked by serotonine in the rat; test: Anti-serotonic activity, serotonine-induced acute paw oedema; format: in vivo; settings: 30 minutes before serotonine
Method: This has been researched in the rat by the technique of the acute oedema localised in the metatarsal region, provoked by the injection of 0.05 ml of a 0.01% solution of serotonine (sulphate of 5-hydroxy-tryptamine-creatinine) in an isotonic solution of sodium chloride.
The plethysmometric measurements of the paw having been subjected to the injection have been effected before, and at different times after, the injection of the serotonine.
The derivatives to be studied have been administered by the oral route 30 minutes before the serotonine.

[5] = test system: skin reflex; test: Local anaesthetic activity, conduction anaesthesia (method of Moukhtar); format: in vivo
Text: The method of MOUKHTAR has been chosen to show the activity of the derivatives studied on conduction anaesthesia (A. MOUKHTAR, C.R. Soc. Biol. 1909-66-187,189).
The reference local anaesthetic substance used in the tests has in each case been procaine hydrochloride in 0.5% solution in an 0.9% isotonic solution of NaCl. The three concentrations used to study the local anaesthetic activity of the new derivatives are 0.50, 0.25 and 0.10%, the vehicle being the isotonic 0.9% solution of NaCl.
The average anaesthetic activity of the substances chosen is expressed comparatively to that of the reference product chosen, by calculating the ratio of the average number n of the stimulations necessary to obtain the appearance of the skin reflex in the case of the derivatives studied, to the average number (n') of the stimulation determined for the reference substance.
The procaine hydrochloride and the derivatives studied are administered by the intradermal route at the rate of 0.20 ml per injection.

[6] = 0.10 g/100 ml, intradermal 0.20 ml
[7] = 0.25 g/100 ml, intradermal 0.20 ml
[8] = 0.50 g/100 ml, intradermal 0.20 ml
[9] = derivative 0.10 g/100 ml vs procaine hydrochloride 0.50 g/100 ml
[10] = derivative 0.25 g/100 ml vs procaine hydrochloride 0.50 g/100 ml
[11] = derivative 0.50 g/100 ml vs procaine hydrochloride 0.50 g/100 ml

Row | Structure (SMILES) | Spasmolytic activity Papaverinic type DE 30 [1] | EC50 [1] [µg/mL] | EC50 [2] [µg/mL] | Spasmolytic activity Atropinic type DE 30 [2] | LD50 ([3]; ip) [mg/kg] | LD50 ([3]; v.o. (oral) route) [mg/kg] | average percentage reduction in oedema after 1 hour ([4]; 30 mg/kg oral) [%] | average percentage reduction in oedema after 2 hours ([4]; 30 mg/kg oral) [%] | average number of stimulations for the derivative studied n [5, 6] | average number of stimulations for the derivative studied n [5, 7] | average number of stimulations for the derivative studied n [5, 8] | local anaesthetic activity n/n' [5, 9] | local anaesthetic activity n/n' [5, 10] | local anaesthetic activity n/n' [5, 11] | average percentage reduction in oedema after 1 hour ([4]; 50 mg/kg oral) [%] | average percentage reduction in oedema after 2 hours ([4]; 50 mg/kg oral) [%] | average number of stimulations for procaine hydrochloride n' ([5]; procaine hydrochloride 0.50 g/100 ml, intradermal 0.20 ml, hydrochloride)
1 | O=C(OCCCN1CCCCC1)C(Cc1cccs1)Cc1csc2ccccc12 (centres unmarked) [Compound 44] | 5.5 μg for 20 ml of bath | 0.4 (≈ 0.935 µM) | 3.5 (≈ 8.18 µM) | 30 μg/20 ml of bath | – | – | – | – | – | – | – | – | – | – | – | – | –
2 | CC(CN1CCCC1)OC(=O)C(Cc1cccs1)Cc1csc2ccccc12 (centres unmarked) [Compound 46] | 2.5 μg for 20 ml of bath | 0.5 (≈ 1.21 µM) | 0.9 (≈ 2.18 µM) | 6.5 μg/20 ml of bath | – | – | – | – | – | – | – | – | – | – | – | – | –
3 | CCN(CC)CCOC(=O)C(Cc1csc2ccccc12)CC1CCCO1 (centres unmarked) [Compound 48] | 6.0 μg for 20 ml of bath | 1.25 (≈ 3.21 µM) | 0.9 (≈ 2.31 µM) | 10 μg/20 ml of bath | – | – | – | – | – | – | – | – | – | – | – | – | –
4 | O=C(OCCN1CCCC1)C(Cc1csc2ccccc12)CC1CCCO1 (centres unmarked) [Compound 49] | 1.6 μg for 20 ml of bath | 0.185 (≈ 0.477 µM) | 1.4 (≈ 3.61 µM) | 21 μg/20 ml of bath | 140 ± 9 | ~650 | 17.8 | 12.6 | – | – | – | – | – | – | – | – | –
5 | O=C(OCCN1CCCCC1)C(Cc1csc2ccccc12)CC1CCCO1 (centres unmarked) [Compound 50] | 5.0 μg for 20 ml of bath | 0.6 (≈ 1.49 µM) | 3.5 (≈ 8.72 µM) | 48 μg/20 ml of bath | 122 ± 12 | – | – | – | – | – | – | – | – | – | – | – | –
6 | O=C(OCCN1CCCCCC1)C(Cc1csc2ccccc12)CC1CCCO1 (centres unmarked) [Compound 51] | 3.5 μg for 20 ml of bath | 0.325 (≈ 0.782 µM) | 4.75 (≈ 11.4 µM) | 61 μg/20 ml of bath | 121 ± 10 | – | – | – | – | – | – | – | – | – | – | – | –
7 | CCN(CC)CCCOC(=O)C(Cc1csc2ccccc12)CC1CCCO1 (centres unmarked) [Compound 53] | 4.5 μg for 20 ml of bath | 0.4 (≈ 0.991 µM) | 7 (≈ 17.3 µM) | 75 μg/20 ml of bath | 145 ± 9 | 1150 ± 78 | 19.4 | 15.1 | 14.2 | 29.1 | 33.2 | 0.5 | 1.0 | 1.2 | 40.6 | 42.9 | –
8 | O=C(OCCCN1CCCC1)C(Cc1csc2ccccc12)CC1CCCO1 (centres unmarked) [Compound 54] | 9.5 μg for 20 ml of bath | 0.6 (≈ 1.49 µM) | 4.5 (≈ 11.2 µM) | 52 μg/20 ml of bath | 100 ± 12 | 400 ± 27 | 22.4 | 16.0 | 16.7 | 25.7 | 31.4 | 0.6 | 0.8 | 1.1 | 34.9 | 45.0 | –
9 | O=C(OCCCN1CCCCC1)C(Cc1csc2ccccc12)CC1CCCO1 (centres unmarked) [Compound 55] | 3.5 μg for 20 ml of bath | 0.375 (≈ 0.902 µM) | – | – | 85 ± 12 | ~450 | 12.3 | 11.3 | – | – | – | – | – | – | 40.7 | 39.8 | –
10 | CCN(CC)CCOC(=O)c1ccc(N)cc1 [procaine hydrochloride, reference compound] | – | – | – | – | – | – | – | – | – | – | – | – | – | – | – | – | 30.5 and 33.9 and 36.0 and 27.2 and 29.5 and 29.2 and 33.7 and 28.2
